Test results: PubChem BioAssay (NCI)
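96-well plates; 48 h exposure; 5 concentrations. Endpoints by linear interpolation between flanking doses. Not reached: highest tested concentration assigned. GI50 marks 50% less growth. At the TGI there is no net growth.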

Experiments:
Assay in all cases: inhibition of tumour cell growth, NCI panel, 48 h
[1] = test system: HS 578T breast
[2] = test system: RXF 393 renal
[3] = test system: 786-0 renal
[4] = test system: SN12C renal
[5] = test system: ACHN renal
[6] = test system: SF-295 CNS
[7] = test system: A498 renal
[8] = test system: HT29 colon
[9] = test system: CAKI-1 renal
[10] = test system: SNB-75 CNS
[11] = test system: HCT-15 colon
[12] = test system: UACC-257 melanoma
[13] = test system: LOX IMVI melanoma
[14] = test system: COLO 205 colon
[15] = test system: SR leukemia
[16] = test system: K-562 leukemia
[17] = test system: PC-3 prostate
[18] = test system: RPMI-8226 leukemia
[19] = test system: MOLT-4 leukemia
[20] = test system: DU-145 prostate
[21] = test system: MDA-MB-231 breast
[22] = test system: SW-620 colon
[23] = test system: OVCAR-4 ovarian
[24] = test system: NCI-H226 lung
[25] = test system: NCI-H23 lung
[26] = test system: SK-MEL-5 melanoma
[27] = test system: MDA-MB-435
[28] = test system: BT-549 breast
[29] = test system: NCI/ADR-RES ovarian
[30] = test system: HOP-62 NSCLC
[31] = test system: HL-60(TB) leukemia
[32] = test system: OVCAR-8 ovarian
[33] = test system: OVCAR-3 ovarian
[34] = test system: OVCAR-5 ovarian
[35] = test system: HCC-2998 colon
[36] = test system: MALME-3M melanoma
[37] = test system: SK-OV-3 ovarian
[38] = test system: MCF7 breast
[39] = test system: UACC-62 melanoma
[40] = test system: KM12 colon
[41] = test system: HOP-92 NSCLC
[42] = test system: M14 melanoma
[43] = test system: EKVX NSCLC
[44] = test system: SF-539 CNS
[45] = test system: SK-MEL-2 melanoma
[46] = test system: UO-31 renal
[47] = test system: NCI-H460 lung
[48] = test system: NCI-H522 lung
[49] = test system: T-47D breast
[50] = test system: U251 CNS
[51] = test system: CCRF-CEM leukemia
[52] = test system: SK-MEL-28 melanoma
[53] = test system: SF-268 CNS
[54] = test system: TK-10 renal
[55] = test system: A549 NSCLC
[56] = test system: SNB-19 CNS
[57] = test system: HCT-116 colon
[58] = test system: IGROV1 ovarian

CNC(=O)c1ccccc1Nc1nc(Nc2cc(OC)c(OC)c(OC)c2)ncc1Br was tested, and the GI50 [1] was 0.0259 µM, the TGI [1] was 0.569 µM and the GI50 [2] was 0.0154 µM. It also gave a TGI [2] of 0.0712 µM, a GI50 [3] of 0.0234 µM and a TGI [3] of 1.85 µM. For the same compound, the GI50 [4] was 0.0366 µM, the TGI [4] was 3.3 µM and the GI50 [5] was 0.0209 µM. The TGI [5] was 15.6 µM, the GI50 [6] was 0.0282 µM and the TGI [6] was 0.868 µM. It also gave a GI50 [7] of less than 0.0109 µM, a TGI [7] of 0.0368 µM and a GI50 [8] of 0.0161 µM. For the same compound, the TGI [8] was 12.7 µM, the GI50 [9] was 0.0155 µM and the TGI [9] was 0.275 µM. The GI50 [10] was less than 0.0124 µM, the TGI [10] was 0.0494 µM and the GI50 [11] was 0.0283 µM. The TGI [11] was 7.75 µM, the GI50 [12] was 0.0328 µM and the TGI [12] was 3.47 µM. The GI50 [13] was 0.0183 µM, the TGI [13] was 0.0917 µM and the GI50 [14] was 0.0151 µM. The TGI [14] was 0.0591 µM, the GI50 [15] was 0.0254 µM and the GI50 [16] was 0.0874 µM. It also gave a TGI [16] greater than 38.9 µM, a GI50 [17] of 0.131 µM and a TGI [17] of 10.9 µM. For the same compound, the GI50 [18] was 0.0701 µM, the TGI [18] was 2.84 µM and the GI50 [19] was 0.0501 µM. It also gave a TGI [19] of 5.75 µM, a GI50 [20] of 0.0348 µM and a TGI [20] of 42.1 µM. It also gave a GI50 [21] of 0.033 µM, a TGI [21] of 0.263 µM and a GI50 [22] of 0.0241 µM. For the same compound, the TGI [22] was 5.76 µM, the GI50 [23] was 0.0287 µM and the TGI [23] was 2.4 µM. The GI50 [24] was 0.0265 µM, the TGI [24] was 0.214 µM and the GI50 [25] was 0.035 µM. It also gave a TGI [25] of 1.12 µM, a GI50 [26] of 0.054 µM and a TGI [26] of 1.18 µM. For the same compound, the GI50 [27] was 0.0546 µM, the TGI [27] was 2.11 µM and the GI50 [28] was 0.0704 µM. It also gave a TGI [28] of 1.17 µM, a GI50 [29] of 0.0496 µM and a TGI [29] of 1.81 µM. The GI50 [30] was 0.0349 µM, the TGI [30] was 2.31 µM and the GI50 [31] was 0.0245 µM. It also gave a TGI [31] of 0.181 µM, a GI50 [32] of 0.0483 µM and a TGI [32] of 12.2 µM. The GI50 [33] was 0.0695 µM, the TGI [33] was 25 µM and the GI50 [34] was 0.0321 µM. It also gave a TGI [34] of 31.7 µM, a GI50 [35] of 0.027 µM and a TGI [35] of 1.54 µM. For the same compound, the GI50 [36] was 0.0266 µM, the TGI [36] was 1.79 µM and the GI50 [37] was 0.0309 µM. It also gave a TGI [37] of 5.13 µM, a GI50 [38] of 0.0374 µM and a TGI [38] of 2.78 µM. For the same compound, the GI50 [39] was 0.0255 µM, the TGI [39] was 1.64 µM and the GI50 [40] was less than 0.0136 µM. For the same compound, the TGI [40] was 4.98 µM, the GI50 [41] was less than 0.0152 µM and the TGI [41] was 0.0874 µM. For the same compound, the GI50 [42] was 0.0191 µM, the TGI [42] was 1.38 µM and the GI50 [43] was 0.0308 µM. It also gave a TGI [43] of 1.01 µM, a GI50 [44] of 0.0313 µM and a TGI [44] of 0.263 µM. The GI50 [45] was 0.0171 µM, the TGI [45] was 0.0499 µM and the GI50 [46] was less than 0.014 µM. It also gave a TGI [46] of 0.0849 µM, a GI50 [47] of 0.0291 µM and a TGI [47] of 1.37 µM. The GI50 [48] was 0.0417 µM, the TGI [48] was 1.85 µM and the GI50 [49] was 1.07 µM. The TGI [49] was 6.71 µM, the GI50 [50] was 0.0426 µM and the TGI [50] was 3.38 µM. It also gave a GI50 [51] of 0.0523 µM, a TGI [51] greater than 19.9 µM and a GI50 [52] of 0.0667 µM. The TGI [52] was 2.11 µM, the GI50 [53] was 0.0384 µM and the TGI [53] was 2.18 µM. The GI50 [54] was 0.0186 µM, the TGI [54] was 0.648 µM and the GI50 [55] was 0.0354 µM. For the same compound, the TGI [55] was 17.5 µM, the GI50 [56] was 0.12 µM and the TGI [56] was 2.53 µM.
In the case of O=C(Cc1ccc(F)c(F)c1)Nc1cc(C2(C(F)(F)F)CC2)nn1Cc1ccccc1, the GI50 [1] is reported as 1.53 µM, the TGI [1] is reported as 10.1 µM and the GI50 [2] is reported as 2.65 µM. For the same compound, the TGI [2] was 12.2 µM, the GI50 [3] was 4.52 µM and the TGI [3] was greater than 15 µM. For the same compound, the GI50 [4] was 4.64 µM, the TGI [4] was greater than 15 µM and the GI50 [5] was 3.85 µM. The TGI [5] was 14.2 µM, the GI50 [6] was 3.77 µM and the TGI [6] was 14.7 µM. The GI50 [7] was 0.548 µM, the TGI [7] was 4.35 µM and the GI50 [8] was 3.74 µM. The TGI [8] was greater than 15 µM, the GI50 [9] was 3.24 µM and the TGI [9] was 11.5 µM. It also gave a GI50 [10] of 0.747 µM, a TGI [10] of 7.09 µM and a GI50 [11] of 4.03 µM. The TGI [11] was greater than 15 µM, the GI50 [12] was 3.61 µM and the TGI [12] was 12.4 µM. For the same compound, the GI50 [13] was 4.9 µM, the TGI [13] was greater than 15 µM and the GI50 [14] was 2.7 µM. For the same compound, the TGI [14] was 6.34 µM, the GI50 [15] was 3.89 µM and the TGI [15] was greater than 15 µM. It also gave a GI50 [16] of 5.01 µM, a TGI [16] greater than 15 µM and a GI50 [17] of 4.67 µM. For the same compound, the TGI [17] was greater than 15 µM, the GI50 [18] was 2.82 µM and the TGI [18] was 8.67 µM. It also gave a GI50 [19] of 3.96 µM, a TGI [19] of 13.8 µM and a GI50 [20] of 5.34 µM. For the same compound, the TGI [20] was greater than 15 µM, the GI50 [21] was 3.05 µM and the TGI [21] was 7.25 µM. The GI50 [22] was 3.91 µM, the TGI [22] was greater than 15 µM and the GI50 [23] was 3.34 µM. It also gave a TGI [23] greater than 15 µM, a GI50 [24] of 4.85 µM and a TGI [24] greater than 15 µM. It also gave a GI50 [25] of 3.61 µM, a TGI [25] of 10.9 µM and a GI50 [26] of 2.77 µM. For the same compound, the TGI [26] was 5.4 µM, the GI50 [57] was 4.28 µM and the TGI [57] was greater than 15 µM. For the same compound, the GI50 [27] was 3.67 µM, the TGI [27] was 11.4 µM and the GI50 [28] was 3.73 µM. For the same compound, the TGI [28] was greater than 15 µM, the GI50 [29] was 3.98 µM and the TGI [29] was greater than 15 µM. For the same compound, the GI50 [30] was 4.55 µM, the TGI [30] was greater than 15 µM and the GI50 [31] was 3.43 µM. The TGI [31] was 8.33 µM, the GI50 [32] was 5.06 µM and the TGI [32] was greater than 15 µM. It also gave a GI50 [33] of 3.85 µM, a TGI [33] of 14.5 µM and a GI50 [34] of 4 µM. It also gave a TGI [34] greater than 15 µM, a GI50 [35] of 4.77 µM and a TGI [35] greater than 15 µM. For the same compound, the GI50 [36] was 2.49 µM, the TGI [36] was 7.85 µM and the GI50 [58] was 4.47 µM. For the same compound, the TGI [58] was greater than 15 µM, the GI50 [37] was 3.56 µM and the TGI [37] was 11.8 µM. For the same compound, the GI50 [38] was 3.9 µM, the TGI [38] was greater than 15 µM and the GI50 [39] was 4.33 µM. For the same compound, the TGI [39] was greater than 15 µM, the GI50 [40] was 4.41 µM and the TGI [40] was greater than 15 µM. It also gave a GI50 [41] of 2.32 µM, a TGI [41] of 8.75 µM and a GI50 [42] of 5.66 µM. The TGI [42] was greater than 15 µM, the GI50 [43] was 2.98 µM and the TGI [43] was 12.2 µM. For the same compound, the GI50 [44] was 4.33 µM, the TGI [44] was greater than 15 µM and the GI50 [45] was 4.4 µM. For the same compound, the TGI [45] was greater than 15 µM, the GI50 [46] was 2.99 µM and the TGI [46] was 10.5 µM. The GI50 [47] was 3.16 µM, the TGI [47] was 7.58 µM and the GI50 [48] was 3.08 µM. The TGI [48] was 9.89 µM, the GI50 [49] was 2.96 µM and the TGI [49] was 13 µM. The GI50 [50] was 4.61 µM, the TGI [50] was greater than 15 µM and the GI50 [51] was 4.79 µM. The TGI [51] was greater than 15 µM, the GI50 [52] was 4.81 µM and the TGI [52] was greater than 15 µM. The GI50 [53] was 4.27 µM, the TGI [53] was greater than 15 µM and the GI50 [54] was 4.5 µM. The TGI [54] was greater than 15 µM, the GI50 [55] was 4.6 µM and the TGI [55] was greater than 15 µM. For the same compound, the GI50 [56] was 4.54 µM and the TGI [56] was greater than 15 µM.
